Measured values as given in patent publication US9029391B2 (priority 2011, dated 2015).
Like-named read-outs stand apart in the source and are kept apart here.

System: HIV
Test: MT4 Assay (anti-HIV activity)
Assay type: cell-based
Experimental: Antiviral HIV activity and cytotoxicity values for compounds of the invention from Table 1 were measured in parallel in the HTLV-1 transformed cell line MT-4 based on the method previously described (Hazen et al., 2007, In vitro antiviral activity of the novel, tyrosyl-based human immunodeficiency virus (HIV) type 1 protease inhibitor brecanavir (GW640385) in combination with other antiretrovirals and against a panel of protease inhibitor-resistant HIV (Hazen et al., “In vitro antiviral activity of the novel, tyrosyl-based human immunodeficiency virus (HIV) type 1 protease inhibitor brecanavir (GW640385) in combination with other antiretrovirals and against a panel of protease inhibitor-resistant HIV”, Antimicrob. Agents Chemother. 2007, 51: 3147-3154; and Pauwels et al., “Sensitive and rapid assay on MT-4 cells for the detection of antiviral compounds against the AIDS virus”, J. of Virological Methods 1987, 16: 171-185).
Luciferase activity was measured 96 hours later by adding a cell titer glo (Promega, Madison, Wis.). Percent inhibition of cell protection data was plotted relative to no compound control. Under the same condition, cytotoxicity of the compounds was determined using cell titer glo (Promega, Madison, Wis.). IC50s were determined from a 10 point dose response curve using 3-4-fold serial dilution for each compound, which spans a concentration range >1000 fold.

[1] = Human immunodeficiency virus 1, 96 h, read-out: HIV MT4 Assay IC50, HTLV-1 transformed cell line MT-4, cell titer glo, 10 point dose response curve

| SMILES | IC50 [1] [nM] | IC50 (read-out: HIV MT4 Assay IC50, HTLV-1 transformed cell line MT-4, 96 hours, cell titer glo, 10 point dose response curve) [nM] |
| --- | --- | --- |
| Cn1c(C(OC(C)(C)C)C(=O)O)c(-c2ccc3c(c2)NCCO3)c2ccccc2c1=O (centres unmarked) [Example 82, 2-(tert-butoxy)-2-[4-(3,4-dihydro-2H-1,4-benzoxazin-6-yl)-2-methyl-1-oxo-1,2-dihydroisoquinolin-3-yl]acetic acid] | 7400 | – |
| Cc1cccc(-c2c(C(OC(C)(C)C)C(=O)O)n(C)c(=O)c3ccccc23)c1 (centres unmarked) [Example 18, 2-(tert-butoxy)-2-[2-methyl-4-(3-methylphenyl)-1-oxo-1,2-dihydroisoquinolin-3-yl]acetic acid] | 3580 | – |
| Cc1c(-c2c([C@H](OC(C)(C)C)C(=O)O)n(C)c(=O)c3cc(N4CCCCC4)ccc23)cc(F)c2c1CCCO2 (atropisomer, axis not shown; (M)) [Example 166, (2S)(M)-[(1,1-dimethylethyl)oxy][4-(8-fluoro-5-methyl-3,4-dihydro-2H-chromen-6-yl)-2-methyl-1-oxo-7-(1-piperidinyl)-1,2-dihydro-3-isoquinolinyl]ethanoic acid] | 20 | – |
| CCCC(C(=O)O)c1c(-c2ccc(C)cc2C)c2ccccc2c(=O)n1C (centres unmarked) [Example 216, 2-[4-(2,4-dimethylphenyl)-2-methyl-1-oxo-1,2-dihydro-3-isoquinolinyl]pentanoic acid] | 36600 | – |
| Cn1c(C(OC(C)(C)C)C(=O)O)c(-c2ccc3c(c2)CCCO3)c2ccc(Cl)cc2c1=O (centres unmarked) [Example 68, 2-(tert-butoxy)-2-[7-chloro-4-(3,4-dihydro-2H-1-benzopyran-6-yl)-2-methyl-1-oxo-1,2-dihydroisoquinolin-3-yl]acetic acid] | 2450 | – |
| Cc1c(-c2c([C@H](OC(C)(C)C)C(=O)O)n(C)c(=O)c3cc(N4CCOCC4)ccc23)cc(F)c2c1CCCO2 (atropisomer, axis not shown; (M)) [Example 168, (S)(M)-2-(tert-butoxy)-2-(4-(8-fluoro-5-methylchroman-6-yl)-2-methyl-7-morpholino-1-oxo-1,2-dihydroisoquinolin-3-yl)acetic acid] | 260 | – |
| Cc1c(-c2c([C@H](OC(C)(C)C)C(=O)O)n(C)c(=O)c3cc(-c4ccccc4F)ccc23)cc(F)c2c1CCCO2 (atropisomer, axis not shown; (M)) [Example 211, (S)(M)-2-(tert-butoxy)-2-(4-(8-fluoro-5-methylchroman-6-yl)-7-(2-fluorophenyl)-2-methyl-1-oxo-1,2-dihydroisoquinolin-3-yl)acetic acid] | 20 | – |
| Cc1c(-c2c(C(OC(C)(C)C)C(=O)O)n(C)c(=O)c3cc(OCc4ccc(F)cn4)ccc23)ccc2c1CCCO2 (centres unmarked) [Example 100, 2-(tert-butoxy)-2-{7-[(5-fluoropyridin-2-yl)methoxy]-2-methyl-4-(5-methyl-3,4-dihydro-2H-1-benzopyran-6-yl)-1-oxo-1,2-dihydroisoquinolin-3-yl}acetic acid] | 270 | – |
| Cc1ccc(-c2c(C(OC(C)(C)C)C(=O)O)n(C)c(=O)c3cc(CNCc4ccccn4)ccc23)cc1C (centres unmarked) [Example 183, 2-(tert-butoxy)-2-(4-(3,4-dimethylphenyl)-2-methyl-1-oxo-7-(((pyridin-2-ylmethyl)amino)methyl)-1,2-dihydroisoquinolin-3-yl)acetic acid] | 3610 | – |
| COc1ccc2c(-c3cc(F)c4c(c3C)CCCO4)c(C(OC(C)(C)C)C(=O)O)n(C)c(=O)c2c1 (centres unmarked) [Example 125, 2-(tert-butoxy)-2-[4-(8-fluoro-5-methyl-3,4-dihydro-2H-1-benzopyran-6-yl)-7-methoxy-2-methyl-1-oxo-1,2-dihydroisoquinolin-3-yl]acetic acid] | 320 | – |
| Cc1c(-c2c(C(OC(C)(C)C)C(=O)O)n(C)c(=O)c3c(F)cccc23)cc(F)c2c1CCCO2 (centres unmarked) [Example 90, 2-(tert-butoxy)-2-[8-fluoro-4-(8-fluoro-5-methyl-3,4-dihydro-2H-1-benzopyran-6-yl)-2-methyl-1-oxo-1,2-dihydroisoquinolin-3-yl]acetic acid] | 510 | – |
| Cn1c(C(OC(C)(C)C)C(=O)O)c(-c2cccc(OC(F)(F)F)c2)c2ccccc2c1=O (centres unmarked) [Example 16, 2-(tert-butoxy)-2-{2-methyl-1-oxo-4-[3-(trifluoromethoxy)phenyl]-1,2-dihydroisoquinolin-3-yl}acetic acid] | 20700 | – |
| Cn1c(C(OC(C)(C)C)C(=O)O)c(-c2cc(F)cc(F)c2)c2ccccc2c1=O (centres unmarked) [Example 6, 2-(tert-butoxy)-2-[4-(3,5-difluorophenyl)-2-methyl-1-oxo-1,2-dihydroisoquinolin-3-yl]acetic acid] | 10600 | – |
| Cc1c(-c2c([C@H](OC(C)(C)C)C(=O)O)n(C)c(=O)c3cc(OCc4ccc(F)cc4)ccc23)ccc2c1CCCO2 [Example 147, (2S)-2-(tert-butoxy)-2-{7-[(4-fluorophenyl)methoxy]-2-methyl-4-(5-methyl-3,4-dihydro-2H-1-benzopyran-6-yl)-1-oxo-1,2-dihydroisoquinolin-3-yl}acetic acid] | 20 | – |
| Cc1c(-c2c(C(OC(C)(C)C)C(=O)O)n(C)c(=O)c3cc(OCc4cncnc4)ccc23)ccc2c1CCCO2 (centres unmarked) [Example 137, 2-(tert-butoxy)-2-[2-methyl-4-(5-methyl-3,4-dihydro-2H-1-benzopyran-6-yl)-1-oxo-7-(pyrimidin-5-ylmethoxy)-1,2-dihydroisoquinolin-3-yl]acetic acid] | 1030 | – |
| Cc1c(-c2c([C@H](OC(C)(C)C)C(=O)O)n(C)c(=O)c3cc(OCc4ccc(Cl)s4)ccc23)ccc2c1CCCO2 [Example 112, (2S)-2-(tert-butoxy)-2-{7-[(5-chlorothiophen-2-yl)methoxy]-2-methyl-4-(5-methyl-3,4-dihydro-2H-1-benzopyran-6-yl)-1-oxo-1,2-dihydroisoquinolin-3-yl}acetic acid] | 50 | – |
| Cc1c(-c2c([C@H](OC(C)(C)C)C(=O)O)n(C)c(=O)c3cc(OCc4cccs4)ccc23)cc(F)c2c1CCCO2 [Example 109, (2S)-2-(tert-butoxy)-2-[4-(8-fluoro-5-methyl-3,4-dihydro-2H-1-benzopyran-6-yl)-2-methyl-1-oxo-7-(thiophen-2-ylmethoxy)-1,2-dihydroisoquinolin-3-yl]acetic acid] | 20 | – |
| Cn1c(C(OC(C)(C)C)C(=O)O)c(-c2ccc3c(c2)CCCO3)c2ccccc2c1=O (centres unmarked) [Example 39, 2-(tert-butoxy)-2-[4-(3,4-dihydro-2H-1-benzopyran-6-yl)-2-methyl-1-oxo-1,2-dihydroisoquinolin-3-yl]acetic acid] | 1880 | – |
| Cc1cccc(-c2ccc3c(-c4cc(F)c5c(c4C)CCCO5)c([C@H](OC(C)(C)C)C(=O)O)n(C)c(=O)c3c2)n1 (atropisomer, axis not shown; (M)) [Example 173, (2S)(M)-[(1,1-dimethylethyl)oxy][4-(8-fluoro-5-methyl-3,4-dihydro-2H-chromen-6-yl)-2-methyl-7-(6-methyl-2-pyridinyl)-1-oxo-1,2-dihydro-3-isoquinolinyl]ethanoic acid] | 120 | – |
| Cc1c(-c2c([C@H](OC(C)(C)C)C(=O)O)n(C)c(=O)c3cc(OCc4ccccn4)ccc23)ccc2c1CCCO2 [Example 144, (2S)-2-(tert-butoxy)-2-[2-methyl-4-(5-methyl-3,4-dihydro-2H-1-benzopyran-6-yl)-1-oxo-7-(pyridin-2-ylmethoxy)-1,2-dihydroisoquinolin-3-yl]acetic acid] | 40 | – |
| Cn1c(C(OC(C)(C)C)C(=O)O)c(-c2ccc3c(c2Cl)CCCO3)c2ccccc2c1=O (centres unmarked) [Example 21, 2-(tert-butoxy)-2-[4-(5-chloro-3,4-dihydro-2H-1-benzopyran-6-yl)-2-methyl-1-oxo-1,2-dihydroisoquinolin-3-yl]acetic acid] | 3500 | – |
| CCOC(C(=O)O)c1c(-c2ccc(C)cc2C)c2ccccc2c(=O)n1C (centres unmarked) [Example 218, [4-(2,4-dimethylphenyl)-2-methyl-1-oxo-1,2-dihydro-3-isoquinolinyl](ethyloxy)acetic acid] | 33200 | – |
| Cc1c(-c2c([C@H](OC(C)(C)C)C(=O)O)n(C)c(=O)c3ccccc23)cc(F)c2c1CCCO2 [Example 162, (2S)-2-(tert-butoxy)-2-[4-(8-fluoro-5-methyl-3,4-dihydro-2H-1-benzopyran-6-yl)-2-methyl-1-oxo-1,2-dihydroisoquinolin-3-yl]acetic acid] | – | 4190 |
| Cc1cc(C)c(-c2c(C(OC(C)(C)C)C(=O)O)n(C)c(=O)c3ccccc23)cc1C (centres unmarked) [Example 43, 2-(tert-butoxy)-2-[2-methyl-1-oxo-4-(2,4,5-trimethylphenyl)-1,2-dihydroisoquinolin-3-yl]acetic acid] | 370 | – |
| Cc1c(-c2c(C(OC(C)(C)C)C(=O)O)n(C)c(=O)c3cc(OCc4ccc(C(F)(F)F)cc4)ccc23)ccc2c1CCCO2 (centres unmarked) [Example 132, 2-(tert-butoxy)-2-[2-methyl-4-(5-methyl-3,4-dihydro-2H-1-benzopyran-6-yl)-1-oxo-7-{[4-(trifluoromethyl)phenyl]-methoxy}-1,2-dihydroisoquinolin-3-yl]acetic acid] | 310 | – |
| Cc1c(-c2c([C@H](OC(C)(C)C)C(=O)O)n(C)c(=O)c3cc(-c4ccoc4)ccc23)cc(F)c2c1CCCO2 (atropisomer, axis not shown; (M)) [Example 194, (2S)(M)-[(1,1-dimethylethyl)oxy][4-(8-fluoro-5-methyl-3,4-dihydro-2H-chromen-6-yl)-7-(3-furanyl)-2-methyl-1-oxo-1,2-dihydro-3-isoquinolinyl]ethanoic acid] | 40 | – |
